From PubChem BioAssay AID330 (DTP/NCI, 2004)
Where “and” joins values, the source holds several entries; their conditions need not be identical. Equal entries are not always repeated. Inconclusive results and toxic doses are left out.

Tested on: P388 leukemia ip, CD2F1 mice, survival T/C
Assay: NCI In Vivo Anticancer Drug Screen. Data for tumor model P388 Leukemia (intraperitoneal) in CD2F1 (CDF1) mice
Settings: endpoint: median survival time, higher = longer survival
Method in brief: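 Mice carrying the transplanted tumor received test compound or vehicle. Survival was recorded in each group, and the value is the treated-group measurement divided by that of the vehicle-treated control group.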

[1] = dose: 6.25 mg/kg/injection, schedule: Q01DX005 (ip), vehicle: saline with Tween-80
[2] = dose: 12.5 mg/kg/injection, schedule: Q01DX005 (ip), vehicle: saline with Tween-80
[3] = dose: 25.0 mg/kg/injection, schedule: Q01DX005 (ip), vehicle: saline with Tween-80
[4] = dose: 200.0 mg/kg/injection, schedule: Q01DX005 (ip), vehicle: saline with Tween-80
[5] = dose: 100.0 mg/kg/injection, schedule: Q01DX001 (ip), vehicle: saline with Tween-80
[6] = dose: 50.0 mg/kg/injection, schedule: Q01DX009 (ip), vehicle: Klucel (hydroxypropylcellulose) (HPC)
[7] = dose: 100.0 mg/kg/injection, schedule: Q01DX009 (ip), vehicle: Klucel (hydroxypropylcellulose) (HPC)
[8] = dose: 200.0 mg/kg/injection, schedule: Q01DX009 (ip), vehicle: Klucel (hydroxypropylcellulose) (HPC)
[9] = dose: 50.0 mg/kg/injection, schedule: Q01DX005 (ip), vehicle: Klucel (hydroxypropylcellulose) (HPC)
[10] = dose: 100.0 mg/kg/injection, schedule: Q01DX005 (ip), vehicle: Klucel (hydroxypropylcellulose) (HPC)
[11] = dose: 50.0 mg/kg/injection, schedule: Q01DX005 (ip), vehicle: saline with Tween-80
[12] = dose: 100.0 mg/kg/injection, schedule: Q01DX005 (ip), vehicle: saline with Tween-80
[13] = dose: 50.0 mg/kg/injection, schedule: Q01DX009 (ip), vehicle: saline with Tween-80
[14] = dose: 100.0 mg/kg/injection, schedule: Q01DX009 (ip), vehicle: saline with Tween-80
[15] = dose: 200.0 mg/kg/injection, schedule: Q01DX009 (ip), vehicle: saline with Tween-80
[16] = dose: 6.25 mg/kg/injection, schedule: Q01DX009 (ip), vehicle: saline
[17] = dose: 12.5 mg/kg/injection, schedule: Q01DX009 (ip), vehicle: saline
[18] = dose: 25.0 mg/kg/injection, schedule: Q01DX009 (ip), vehicle: saline
[19] = dose: 200.0 mg/kg/injection, schedule: Q01DX001 (ip), vehicle: saline with Tween-80

`COC(=O)/C=C/N(Cc1ccccc1)/N=N/N(/C=C/C(=O)OC)Cc1ccccc1` was tested, and the T/C [1] was 101 % of control, the T/C [2] was 95 % of control and the T/C [3] was 97 % of control. For the same molecule, the T/C [4] was 87 % of control.
`COc1ccc2c(c1)C1CN(Cc3ccccc31)C2` (centres undefined) was tested, and the T/C [5] was 99 % of control.
For `O=C1NC(=S)NNC12CCCCC2`, the T/C (dose: 25.0 mg/kg/injection, schedule: Q01DX009 (ip), vehicle: Klucel (hydroxypropylcellulose) (HPC)) was 101 % of control, the T/C [6] was 101 % of control and 108 % of control and the T/C [7] was 112 % of control and 97 % of control. The T/C [8] was 105 % of control (2×) and 113 % of control.
In the case of `Cc1oc2c(C)c3oc(=O)cc(C)c3cc2c1CN1C(=O)c2ccccc2C1=O`, the T/C (dose: 100.0 mg/kg/injection, schedule: Q05DX002 (ip), vehicle: saline with Tween-80) is reported as 99 % of control, the T/C (dose: 200.0 mg/kg/injection, schedule: Q05DX002 (ip), vehicle: saline with Tween-80) is reported as 92 % of control and the T/C (dose: 400.0 mg/kg/injection, schedule: Q05DX002 (ip), vehicle: saline with Tween-80) is reported as 98 % of control.
For `NC(=O)c1cc(C(Cl)Cl)ccn1`, the T/C (dose: 60.0 mg/kg/injection, schedule: Q01DX005 (ip), vehicle: Klucel (hydroxypropylcellulose) (HPC)) was 100 % of control, the T/C (dose: 120.0 mg/kg/injection, schedule: Q01DX005 (ip), vehicle: Klucel (hydroxypropylcellulose) (HPC)) was 99 % of control and the T/C (dose: 240.0 mg/kg/injection, schedule: Q01DX005 (ip), vehicle: Klucel (hydroxypropylcellulose) (HPC)) was 93 % of control.
In the case of `ClC(Cl)(Cl)C(=NNc1ccccc1)C(Cl)(Cl)Cl`, the T/C (dose: 15.0 mg/kg/injection, schedule: Q01DX005 (ip), vehicle: saline with Tween-80) is reported as 104 % of control, the T/C (dose: 30.0 mg/kg/injection, schedule: Q01DX005 (ip), vehicle: saline with Tween-80) is reported as 104 % of control and the T/C (dose: 60.0 mg/kg/injection, schedule: Q01DX005 (ip), vehicle: saline with Tween-80) is reported as 105 % of control and 110 % of control.
With `CON(Cc1ccc(C(=O)NC(C)C)cc1)Cc1ccc(C(=O)NC(C)C)cc1` the T/C (dose: 25.0 mg/kg/injection, schedule: Q01DX009 (ip), vehicle: other) was 94 % of control, the T/C (dose: 50.0 mg/kg/injection, schedule: Q01DX009 (ip), vehicle: other) was 100 % of control and the T/C (dose: 100.0 mg/kg/injection, schedule: Q01DX009 (ip), vehicle: other) was 92 % of control.
`Cc1cccc(C)c1NC(=O)CCC(=O)O` was tested, and the T/C [9] was 104 % of control, the T/C [10] was 102 % of control and the T/C (dose: 200.0 mg/kg/injection, schedule: Q01DX005 (ip), vehicle: Klucel (hydroxypropylcellulose) (HPC)) was 103 % of control.
For `CCOc1ccc(CC)cc1Cc1ccc(OC)cc1`, the T/C [11] was 108 % of control, the T/C [12] was 117 % of control and the T/C [4] was 113 % of control.
`NC(=O)c1nnn2c1nc(N)c1ccccc12` was tested, and the T/C [13] was 90 % of control, the T/C [14] was 89 % of control and the T/C [15] was 91 % of control.
`Nc1ccc2nc3ccccc3c(NCCCCCCCCNc3c4ccccc4nc4ccc(N)cc34)c2c1` was tested, and the T/C (dose: 2.5 mg/kg/injection, schedule: Q01DX009 (ip), vehicle: water) was 160 % of control and the T/C (dose: 5.0 mg/kg/injection, schedule: Q01DX009 (ip), vehicle: water) was 160 % of control.
For `O=C(O)c1cn2c(n1)sc1ccccc12`, the T/C (dose: 100.0 mg/kg/injection, schedule: Q01DX001 (ip), vehicle: Klucel (hydroxypropylcellulose) (HPC)) was 97 % of control, the T/C (dose: 200.0 mg/kg/injection, schedule: Q01DX001 (ip), vehicle: Klucel (hydroxypropylcellulose) (HPC)) was 92 % of control and the T/C (dose: 400.0 mg/kg/injection, schedule: Q01DX001 (ip), vehicle: Klucel (hydroxypropylcellulose) (HPC)) was 96 % of control.
With `O=S(=O)(c1cnccc1N1CCN(CCCl)CC1)N1CCCCC1` the T/C [16] was 98 % of control and 100 % of control, the T/C [17] was 100 % of control and 104 % of control and 105 % of control and the T/C [18] was 100 % of control and 108 % of control and 109 % of control.
In the case of `CCOC(=O)C(NC(=O)c1ccccc1)C(C)(C)SCc1ccccc1` (centres undefined), the T/C [11] is reported as 103 % of control, the T/C [12] is reported as 101 % of control and the T/C [4] is reported as 95 % of control.
`O=C1C2CC3CC4C(=O)C5CC1C1C2C3C4C51` (centres undefined) was tested, and the T/C [13] was 94 % of control, the T/C [14] was 102 % of control and the T/C [15] was 97 % of control.
For `Cc1nc(O)c(-c2ccccc2)s1`, the T/C [13] was 104 % of control, the T/C [14] was 105 % of control and the T/C [15] was 92 % of control.
In the case of `CCCCCCCC(=O)Nc1cc2c3c(c1)CCCN3CCC2`, the T/C (dose: 50.0 mg/kg/injection, schedule: Q01DX001 (ip), vehicle: saline with Tween-80) is reported as 100 % of control, the T/C [5] is reported as 95 % of control and the T/C [19] is reported as 90 % of control.
With `CCCCN(CCCC)CN(CCCC)CCCC` the T/C [2] was 102 % of control, the T/C [3] was 112 % of control and the T/C [11] was 104 % of control and 114 % of control.
In the case of `O=C(c1ccc(Cl)cc1)c1cc2c(ccc3ccccc32)oc1=O`, the T/C [16] is reported as 91 % of control, the T/C [17] is reported as 95 % of control and the T/C [18] is reported as 104 % of control.
With `CN1C(=O)CC(=O)N(c2ccccc2)c2cc(Cl)ccc21` the T/C [9] was 103 % of control and the T/C [10] was 97 % of control.
`C=C1CC2(CCOc3ccccc32)OC1=O` (centres undefined) was tested, and the T/C (dose: 25.0 mg/kg/injection, schedule: Q04DX003 (ip), vehicle: saline with Tween-80) was 105 % of control, the T/C (dose: 50.0 mg/kg/injection, schedule: Q04DX003 (ip), vehicle: saline with Tween-80) was 115 % of control and the T/C (dose: 100.0 mg/kg/injection, schedule: Q04DX003 (ip), vehicle: saline with Tween-80) was 108 % of control and 117 % of control. For the same molecule, the T/C (dose: 200.0 mg/kg/injection, schedule: Q04DX003 (ip), vehicle: saline with Tween-80) was 90 % of control.
With `COC(=O)C1NC(C)(C(=O)OC)C2C(=O)NC(=O)C12` (centres undefined) the T/C (dose: 100.0 mg/kg/injection, schedule: Q04DX002 (ip), vehicle: Klucel (hydroxypropylcellulose) (HPC)) was 95 % of control, the T/C (dose: 200.0 mg/kg/injection, schedule: Q04DX002 (ip), vehicle: Klucel (hydroxypropylcellulose) (HPC)) was 93 % of control and the T/C (dose: 400.0 mg/kg/injection, schedule: Q04DX002 (ip), vehicle: Klucel (hydroxypropylcellulose) (HPC)) was 88 % of control.
`CCOC(=O)C(Cc1ccccc1C(=O)NC)c1ccccc1` (centres undefined) was tested, and the T/C (dose: 100.0 mg/kg/injection, schedule: Q01DX009 (ip), vehicle: saline sonified) was 95 % of control, the T/C (dose: 200.0 mg/kg/injection, schedule: Q01DX009 (ip), vehicle: saline sonified) was 95 % of control and the T/C (dose: 400.0 mg/kg/injection, schedule: Q01DX009 (ip), vehicle: saline sonified) was 95 % of control.
`COc1cc(NC(C)CN(CC(C)C)C(C)C)c2ncccc2c1` (centres undefined) was tested, and the T/C (dose: 50.0 mg/kg/injection, schedule: Q01DX005 (ip), vehicle: saline) was 104 % of control and the T/C (dose: 100.0 mg/kg/injection, schedule: Q01DX005 (ip), vehicle: saline) was 98 % of control.
In the case of `CC(C)=CC1C(C(=O)OCc2ccc3c(c2)OCO3)C1(C)C` (centres undefined), the T/C (dose: 50.0 mg/kg/injection, schedule: Q01DX009 (ip), vehicle: saline) is reported as 107 % of control, the T/C (dose: 100.0 mg/kg/injection, schedule: Q01DX009 (ip), vehicle: saline) is reported as 93 % of control and the T/C (dose: 200.0 mg/kg/injection, schedule: Q01DX009 (ip), vehicle: saline) is reported as 99 % of control. The T/C (dose: 400.0 mg/kg/injection, schedule: Q01DX009 (ip), vehicle: saline) was 104 % of control.
For `CCn1c(=O)c2[nH]c(Cl)nc2n(CCOC)c1=O`, the T/C [6] was 116 % of control, the T/C [7] was 96 % of control and the T/C [8] was 111 % of control.
For `OCC1OC(O)C(N=Cc2ccc3c(c2)OCO3)C(O)C1O` (centres undefined), the T/C [11] was 104 % of control, the T/C [12] was 100 % of control and the T/C [4] was 102 % of control.
For `NC(=O)c1[nH]ncc1C1OCCC1O` (centres undefined), the T/C [5] was 100 % of control, the T/C [19] was 100 % of control and the T/C (dose: 400.0 mg/kg/injection, schedule: Q01DX001 (ip), vehicle: saline with Tween-80) was 100 % of control.
In the case of `COc1c(-c2ccc3c(c2)OCO3)oc2cc(O)cc(O)c2c1=O`, the T/C [1] is reported as 100 % of control, the T/C [2] is reported as 100 % of control and the T/C [3] is reported as 104 % of control. The T/C [12] was 89 % of control and the T/C [4] was 105 % of control.
For `CN=C(c1ccc(NC(=O)c2cccc(C(=O)Nc3ccc(C(=NC)N(C)C)cc3)c2)cc1)N(C)C`, the T/C (dose: 1.56 mg/kg/injection, schedule: Q01DX005 (ip), vehicle: saline) was 102 % of control, the T/C (dose: 3.12 mg/kg/injection, schedule: Q01DX005 (ip), vehicle: saline) was 102 % of control and the T/C (dose: 6.25 mg/kg/injection, schedule: Q01DX005 (ip), vehicle: saline) was 106 % of control and 96 % of control.
For `O=C(c1ccc(O)cc1)c1ccc(C(=O)c2ccc(O)cc2)cc1`, the T/C [6] was 99 % of control, the T/C [7] was 97 % of control and the T/C [8] was 90 % of control.
